Tests used:
ERα [1] = molecular target: T1, ERα (Homo sapiens, UniProt P03372); assay: Estrogen receptor-alpha (ERα) degradation assay in MCF-7 cells using western blot; assay type: cell-based; design: assessed for their activity in degrading ERα in MCF-7 cells via western blot; endogenous in cells; host or cells: MCF7 cells; details: ER-alpha degradation, MCF7 cells, 3 days of incubation
T1 sequence (P03372 1-595): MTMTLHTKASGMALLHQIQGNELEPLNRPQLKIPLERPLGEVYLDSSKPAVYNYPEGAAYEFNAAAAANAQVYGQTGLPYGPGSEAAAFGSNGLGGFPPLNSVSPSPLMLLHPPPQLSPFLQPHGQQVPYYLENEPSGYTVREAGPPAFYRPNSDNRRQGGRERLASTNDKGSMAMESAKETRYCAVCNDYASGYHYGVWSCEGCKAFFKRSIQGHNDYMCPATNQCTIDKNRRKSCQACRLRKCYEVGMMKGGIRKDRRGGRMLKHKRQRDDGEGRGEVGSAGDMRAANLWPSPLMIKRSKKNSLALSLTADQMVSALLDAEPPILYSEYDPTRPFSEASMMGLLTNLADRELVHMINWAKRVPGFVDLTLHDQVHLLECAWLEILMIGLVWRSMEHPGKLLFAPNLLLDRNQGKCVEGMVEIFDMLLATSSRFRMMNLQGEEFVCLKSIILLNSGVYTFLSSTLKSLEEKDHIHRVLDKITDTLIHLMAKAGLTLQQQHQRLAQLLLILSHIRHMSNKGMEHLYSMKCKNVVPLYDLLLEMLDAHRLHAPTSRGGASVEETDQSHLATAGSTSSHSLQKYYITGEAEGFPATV
Description: Compounds prepared in this application were also analyzed for the degradation of ERα in MCF7 and T47D cells.
Estrogen Receptor-Alpha (ERα) Degradation Assay in MCF-7 Cells Using Western Blot Method for Table 4.
The exemplary novel ERα degraders were assessed for their activity in degrading ERα in MCF-7 cells via western blot. The assay was carried out in the presence of 10% fetal bovine serum (FBS) or high percentage of human or mouse serum.
MCF7 cells were grown in DMEM/F12 with 10% fetal bovine serum and seeded at 24,000 cells per well in 100 μl into 96-well clear tissue culture plates. The following day, the cells were treated with PROTACs in a […] concentration curve with 100 nM being the top concentration and serial dilutions to make the other concentrations (30 nM, 10 nM, 3 nM, 1 nM, and 0.3 nM). At all concentrations, 0.01% DMSO is the final concentration in the well. The following day, the plates are aspirated, washed with 50 μl of cold PBS. The cells are lysed with 50 μl/well 4° C. Cell Lysis Buffer (Catalog #9803; Cell Signaling Technology, Danvers, Mass.) (20 mM Tris-HCL (pH 7.5), 150 mM NaCl, 1 mM […], 1 mM EGTA, 1% Triton, 2.5 mM sodium pyrophosphate, 1 mM B-glycerophosphate, 1 mM sodium vanadate, 1 ug/ml leupeptin). Lysates were clarified at 16,000×g for 10 minutes, and 2 μg of protein was subjected to SDS-PAGE analysis and followed by immunoblotting according to standard protocols. The antibodies used were ERα (Cell Signaling Technologies Catalog #8644), and Tubulin (Sigma Catalog #T9026; St. Louis, Mo.). Detection reagents were Clarity Western ECL substrate (Bio-Rad Catalog #170-5060; Hercules, Calif.).
Alternatively, MCF7 cells were grown in DMEM/F12 with 10% fetal bovine serum and seeded at 24,000 cells per well in 500 μl in 24-well clear tissue culture plates. The following day, the cells were treated with PROTACs in a 5-point concentration curve (100 nM, 33 nM, 11 nM, 3.7 nM, and 1.2 nM) in the presence of 0.01% DMSO. After 72 hours, the wells are aspirated and washed with 500 μl of PBS. The cells are lysed with 100 μl/well 4° C. Cell Lysis Buffer (Catalog #9803; Cell Signaling Technology, Danvers, M A) (20 mM Tris-HCL (pH 7.5), 150 mM NaCl, 1 mM Na2EDTA, 1 mM EGTA, 1% Triton, 2.5 mM sodium pyrophosphate, 1 mM B-glycerophosphate, 1 mM sodium vanadate, 1 ug/ml leupeptin). Lysates were clarified at 16,000×g for 10 minutes, and 2 μg of protein was subjected to SDS-PAGE analysis and followed by immunoblotting according to standard protocols. The antibodies used were ER(X (Cell Signaling Technologies Catalog #8644), and Tubulin (Sigma Catalog #T9026; St. Louis, Mo.). Detection reagents were Clarity Western ECL substrate (Bio-Rad Catalog #170-5060; Hercules, Calif.).

ERα [2] = molecular target: T1, ERα; assay: ERE luciferase reporter gene assay in T47D-KBluc cells (target engagement); assay type: cell-based; design: T47D human breast cancer cells stably transfected with estrogen responsive element/promoter/luciferase reporter gene; host or cells: T47D-KBluc cells; details: 10% FBS, 24 hours, Table 2 VHL centric PROTACs, read-out: IC50
In short: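 PROTACs were tested at 12 concentrations from 300 nM down to 2 pM in 3-fold steps for 24 h on T47D-KBluc cells with a stable ERE-driven luciferase. Medium was RPMI with 10% FBS, measured at 10 pM estrogen. IC50 came from luminescence after lysis, in duplicate.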

Row | DC50 (ERα [1]) [nM] | Dmax (ERα [1]) [%] | IC50 (ERα [2]) [nM] | SMILES
1 | 1 to 10 | > 75 | 1 | C[C@H](NC(=O)[C@@H]1C[C@@H](O)CN1C(=O)[C@@H](NC(=O)COCCOCCN1CCC(c2ccc(Oc3c(-c4ccc(F)cc4)sc4cc(O)ccc34)cc2)CC1)C(C)(C)C)c1ccc(C#N)cc1 [Compound 147, (2S,4R)—N-[(1S)-1-(4-cyanophenyl)ethyl]-1-[(2S)-2-[2-(2-[2-[4-(4-[[2-(4-fluorophenyl)-6-hydroxy-1-benzothiophen-3-yl]oxy]phenyl)piperidin-1-yl]ethoxy]ethoxy)acetamido]-3,3-dimethylbutanoyl]-4-hydroxypyrrolidine-2-carboxamide]
2 | < 1 | > 75 | 0.4 | Cc1ncsc1-c1ccc(CNC(=O)[C@@H]2C[C@@H](O)CN2C(=O)[C@@H](NC(=O)COCCN2CCN(CCOc3ccc(Oc4c(-c5ccc(Cl)cc5)sc5cc(O)ccc45)cc3)CC2)C(C)(C)C)cc1 [Compound 151, (2S,4R)-1-[(2S)-2-[2-(2-[4-[2-(4-[[2-(4-chlorophenyl)-6-hydroxy-1-benzothiophen-3-yl]oxy]phenoxy)ethyl]piperazin-1-yl]ethoxy)acetamido]-3,3-dimethylbutanoyl]-4-hydroxy-N-[[4-(4-methyl-1,3-thiazol-5-yl)phenyl]methyl]pyrrolidine-2-carboxamide]
3 | 1 to 10 | 50 to 75 | 2.7 | Cc1ncsc1-c1ccc(CNC(=O)[C@@H]2C[C@@H](O)CN2C(=O)C(c2cc(OCCN3CCN(CCOc4ccc(Oc5c(-c6ccc(Br)cc6)sc6cc(O)ccc56)cc4)CC3)no2)C(C)C)cc1 (stereo in doubt) [Compound 164, (2S,4R)-1-((S)-2-(3-(2-(4-(2-(4-((2-(4-bromophenyl)-6-hydroxybenzo[b]thiophen-3-yl)oxy)phenoxy)ethyl)piperazin-1-yl)ethoxy)isoxazol-5-yl)-3-methylbutanoyl)-4-hydroxy-N-(4-(4-methylthiazol-5-yl)benzyl)pyrrolidine-2-carboxamide]
4 | 1 to 10 | > 75 | 1.4 | C[C@H](NC(=O)[C@@H]1C[C@@H](O)CN1C(=O)[C@@H](NC(=O)Cc1ccc(-c2ccn(CCOc3ccc(Oc4c(-c5ccc(F)cc5)sc5cc(O)ccc45)cc3)n2)cc1)C(C)(C)C)c1ccc(C#N)cc1 [Compound 149]
5 | < 1 | > 75 | 0.8 | Cc1ncsc1-c1ccc(CNC(=O)[C@@H]2C[C@@H](O)CN2C(=O)[C@@H](NC(=O)COCCOCCN2CCC(c3ccc(Oc4c(-c5ccc(F)cc5)sc5cc(O)ccc45)cc3)CC2)C(C)(C)C)cc1 [Compound 135, (2S,4R)-1-[(2S)-2-[2-(2-[2-[4-(4-[[2-(4-fluorophenyl)-6-hydroxy-1-benzothiophen-3-yl]oxy]phenyl)piperidin-1-yl]ethoxy]ethoxy)acetamido]-3,3-dimethylbutanoyl]-4-hydroxy-N-[[4-(4-methyl-1,3-thiazol-5-yl)phenyl]methyl]pyrrolidine-2-carboxamide]

More lines, now with the values behind:

Row | SMILES | DC50 (ERα [1]) [nM] | Dmax (ERα [1]) [%] | IC50 (ERα [2]) [nM]
6 | Cc1ncsc1-c1ccc([C@H](C)NC(=O)[C@@H]2C[C@@H](O)CN2C(=O)[C@@H](NC(=O)COCCOCCOCCOc2ccc(Oc3c(-c4ccc(Br)cc4)sc4cc(O)ccc34)cc2)C(C)(C)C)cc1 [Compound 126, (2S,4R)-1-((S)-14-(4-(2-(4-bromophenyl)-6-hydroxybenzo[b]thiophen-3-yloxy)phenoxy)-2-tert-butyl-4-oxo-6,9,12-trioxa-3-azatetradecane)-4-hydroxy-N-((S)-1-(4-(4-methylthiazol-5-yl)phenyl)ethyl)pyrrolidine-2-carboxamide] | < 1 | > 75 | 0.2
7 | Cc1ncsc1-c1ccc([C@H](C)NC(=O)[C@@H]2C[C@@H](O)CN2C(=O)[C@@H](NC(=O)COCCOCCOCCOc2ccc(Oc3c(-c4ccc(F)cc4)sc4cc(O)ccc34)cc2)C(C)(C)C)cc1 [Compound 111, (2S,4R)-1-((S)-2-tert-butyl-14-(4-(2-(4-fluorophenyl)-6-hydroxybenzo[b]thiophen-3-yloxy)phenoxy)-4-oxo-6,9,12-trioxa-3-azatetradecane)-4-hydroxy-N—((S)-1-(4-(4-methylthiazol-5-yl)phenyl)ethyl)pyrrolidine-2-carboxamide] | < 1 | > 75 | 0.6
8 | Cc1ncsc1-c1ccc(CNC(=O)[C@@H]2C[C@@H](O)CN2C(=O)[C@@H](NC(=O)Cc2ccc(-c3ccn(CCOc4ccc(Oc5c(-c6ccc(F)cc6)sc6cc(O)ccc56)cc4)n3)cc2)C(C)(C)C)cc1 [Compound 121, (2S,4R)-1-[(2S)-2-[2-(4-[1-[2-(4-[[2-(4-fluorophenyl)-6-hydroxy-1-benzothiophen-3-yl]oxy]phenoxy)ethyl]-1H-pyrazol-3-yl]phenyl)acetamido]-3,3-dimethylbutanoyl]-4-hydroxy-N-[[4-(4-methyl-1,3-thiazol-5-yl)phenyl]methyl]pyrrolidine-2-carboxamide] | 1 to 10 | > 75 | 1
9 | Cc1ncsc1-c1ccc(CNC(=O)[C@@H]2C[C@@H](O)CN2C(=O)[C@@H](NC(=O)CCc2cccc(-c3ccn(CCOc4ccc(Oc5c(-c6ccc(F)cc6)sc6cc(O)ccc56)cc4)n3)c2)C(C)(C)C)cc1 [Compound 130, (2S,4R)-1-[(2S)-2-[3-(3-[1-[2-(4-[[2-(4-fluorophenyl)-6-hydroxy-1-benzothiophen-3-yl]oxy]phenoxy)ethyl]-1H-pyrazol-3-yl]phenyl)propanamido]-3,3-dimethylbutanoyl]-4-hydroxy-N-[[4-(4-methyl-1,3-thiazol-5-yl)phenyl]methyl]pyrrolidine-2-carboxamide] | 1 to 10 | > 75 | 3.5
10 | Cc1ncsc1-c1ccc([C@H](C)NC(=O)[C@@H]2C[C@@H](O)CN2C(=O)[C@@H](NC(=O)COCCOCCN(C)CCOc2ccc(Oc3c(-c4ccc(F)cc4)sc4cc(O)ccc34)cc2)C(C)(C)C)cc1 [Compound 128, (2S,4R)-1-[(2S)-2-[1-(4[[2-(4-fluorophenyl)-6-hydroxy-1-benzothiophen-3-yl]oxy]phenyl)-4-methyl-1,7,10-trioxa-4-azadodecan-12-amido]-3,3-dimethylbutanoyl]-4-hydroxy-N-[(1S)-1-[4-(4-methyl-1,3-thiazol-5-yl)phenyl]ethyl]pyrrolidine-2-carboxamide] | < 1 | > 75 | 0.3

— patent US11384063B2, “Modulators of estrogen receptor proteolysis and associated methods of use” (Arvinas Operations, Inc., priority 2017, dated 2022)
